The target of assay [1] is T1, TRPV1 (Rattus norvegicus, UniProt O35433). The assay is described as follows: capsaicin-induced 45Ca2+-uptake in primary dorsal root ganglion. The class given is cell-based. The settings on record: for Hill Slope ± SEM / enhancing activity (in words): primary DRG cells; for Hill Slope ± SEM: ~0.5 µM capsaicin, single assay run in quadruplicate wells; for enhancing activity (in words): in presence of capsaicin.

Assay [2] addresses T1, TRPV1. The assay is described as follows: capsaicin-induced 45Ca2+-uptake in TRPV1ε-NIH3T3 cells. The settings on record: for Hill Slope ± SEM: enhancement of 45Ca2+-uptake in presence of 2 µM capsaicin; for enhancing activity (in words): in presence of 2 µM capsaicin. The class given is cell-based.
Assay [3] addresses T1, TRPV1. The assay is described as follows: intracellular Ca2+ imaging. Format: cell-based.
Assay [4] has as its target human A3 adenosine receptor. As to conditions: read-out: Ki value at the A3 receptor; ref [30]; cited from earlier work.

These results are taken from article PMC2613801 (Bioorganic & medicinal chemistry, 2008).

By EC50 is commonly meant the concentration needed to bring the measured effect to its halfway point. Lower therefore signals an effect from little substance. The Ki is a dissociation constant, usually derived from enzyme kinetics or from competition with a known ligand.

T1 sequence (O35433 whole entry): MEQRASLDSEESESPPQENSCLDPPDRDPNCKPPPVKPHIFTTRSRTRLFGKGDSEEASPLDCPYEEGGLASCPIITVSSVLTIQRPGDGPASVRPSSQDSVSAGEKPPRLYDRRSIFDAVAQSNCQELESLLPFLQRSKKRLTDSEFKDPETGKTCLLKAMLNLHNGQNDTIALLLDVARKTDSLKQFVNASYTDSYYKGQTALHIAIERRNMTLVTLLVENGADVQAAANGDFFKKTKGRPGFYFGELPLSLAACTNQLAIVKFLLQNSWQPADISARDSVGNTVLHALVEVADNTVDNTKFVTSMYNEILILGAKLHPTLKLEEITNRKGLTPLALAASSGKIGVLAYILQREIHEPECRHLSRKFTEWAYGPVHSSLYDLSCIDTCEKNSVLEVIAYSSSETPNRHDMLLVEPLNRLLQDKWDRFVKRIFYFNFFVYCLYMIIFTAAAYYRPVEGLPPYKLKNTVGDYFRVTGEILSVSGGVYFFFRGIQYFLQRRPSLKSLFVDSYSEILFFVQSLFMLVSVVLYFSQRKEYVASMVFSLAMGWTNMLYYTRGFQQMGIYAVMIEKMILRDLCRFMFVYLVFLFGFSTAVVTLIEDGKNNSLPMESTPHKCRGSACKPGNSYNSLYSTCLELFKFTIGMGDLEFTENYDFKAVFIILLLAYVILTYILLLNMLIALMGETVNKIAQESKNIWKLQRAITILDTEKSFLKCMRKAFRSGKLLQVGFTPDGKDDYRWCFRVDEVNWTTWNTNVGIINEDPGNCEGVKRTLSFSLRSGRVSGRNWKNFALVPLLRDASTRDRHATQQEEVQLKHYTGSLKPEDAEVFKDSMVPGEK

Regarding `CCOC(=O)C1=C(C)NC(c2cccc(Cl)c2)=C(C(=O)OCC)C1CC` (racemic) [Compound 9, 3,5-Diethyl-2-methyl-4-ethyl-6-(3-chlorophenyl)-1,4-(±)-dihydropyridine-3,5-dicarboxylate], the “Hill Slope ± SEM” value came to 2.24 ± 0.53 on TRPV1 [1] and 1.45 ± 0.28 at TRPV1 [2].
On to `CCOC(=O)C1=C(C)NC(c2cccc(F)c2)=C(C(=O)OCC)C1CC` (racemic) [Compound 10, 3,5-Diethyl-2-methyl-4-ethyl-6-(3-fluorophenyl)-1,4-(±)-dihydropyridine-3,5-dicarboxylate], for which, at TRPV1 [1], the response was half-maximal at 20.5 ± 1.1 µM (EC50) and the “Hill Slope ± SEM” value is recorded as 2.64 ± 0.59. The “Hill Slope ± SEM” value at TRPV1 [2] was found to be 1.98 ± 0.30.
For `CCOC(=O)C1=C(C)NC(c2ccc(F)cc2)=C(C(=O)OCC)C1CC` (racemic) [Compound 11, 3,5-Diethyl-2-methyl-4-ethyl-6-(4-fluorophenyl)-1,4-(±)-dihydropyridine-3,5-dicarboxylate] the same measures were 15.7 ± 1.3 µM, 2.01 ± 0.77 and 1.86 ± 0.42.
With `CCOC(=O)C1=C(c2cccc(F)c2)NC(C)=C(C(=O)SCC)C1CC` (racemic) [Compound 14, 3-Ethylthio-5-ethyl-2-methyl-4-ethyl-6-(3-fluorophenyl)-1,4-(±)-dihydropyridine-3,5-dicarboxylate], on TRPV1 [2], the “Hill Slope ± SEM” value was 1.59 ± 0.33 and the “enhancing activity (in words)” value is “strong, dosedependent effects”.
Consider `CCOC(=O)C1=C(c2ccc(F)cc2)NC(C)=C(C(=O)SCC)C1CC` (racemic) [Compound 15, 3-Thioethyl-5-ethyl-2-methyl-4-ethyl-6-(4-fluorophenyl)-1,4-(±)-dihydropyridine-3,5-dicarboxylate], for which the “Hill Slope ± SEM” value at TRPV1 [2] was determined as 1.82 ± 0.33.
Regarding `CCOC(=O)C1=C(C2CCCCC2)NC(C)=C(C(=O)SCC)C1CC` (racemic) [Compound 17, 3-Ethylthio-5-ethyl-2-methyl-4-ethyl-6-cyclohexyl-1,4-(±)-dihydropyridine-3,5-dicarboxylate], at TRPV1 [2], the “enhancing activity (in words)” value is “inactive”.
Take `CCCC1C(C(=O)SCCc2ccccc2)=C(C)NC(c2ccccc2)=C1C(=O)OCC` (racemic) [Compound 26, 3-(2-Phenylethylthio)-5-ethyl-2-methyl-4-propyl-6-phenyl-1,4-(±)-dihydropyridine-3,5-dicarboxylate]: the “Hill Slope ± SEM” value at TRPV1 [2] was 1.14 ± 0.32.
On to `CCOC(=O)C1=C(c2ccc(F)cc2)NC(C)=C(C(=O)SCCc2ccccc2)C1CC` (racemic) [Compound 29, 3-(2-Phenylethylthio)-5-ethyl-2-methyl-4-ethyl-6-(4-fluorophenyl)-1,4-(±)-dihydropyridine-3,5-dicarboxylate], for which, on TRPV1 [2], the “Hill Slope ± SEM” value came to 1.18 ± 0.25 and the “enhancing activity (in words)” value is listed as “slightly active”.
Take `CCOC(=O)C1=C(c2ccc([N+](=O)[O-])cc2)NC(C)=C(C(=O)SCc2ccccc2)C1CC` (racemic) [Compound 31]: the results for the “enhancing activity (in words)” value at TRPV1 [1] and on TRPV1 [2] were “inactive” and “neutral”, respectively.
For the compound `CCOC(=O)C1=C(c2ccccc2)N=C(C)/C(=C(/O)SCC)C1CC` (stereo not shown) [Compound 12], the “Hill Slope ± SEM” value at TRPV1 [2] is recorded as 1.55 ± 0.17.
For `CCCC1C(C(=O)OCC)=C(c2ccccc2)N=C(C)/C1=C(/O)SCC` (stereo not shown) [Compound 18], at TRPV1 [1], the EC50 worked out at 10.5 ± 1.1 µM and the “Hill Slope ± SEM” value is listed as 1.47 ± 0.16. Further, at TRPV1 [2], the “Hill Slope ± SEM” value is 1.38 ± 0.23 and the “enhancing activity (in words)” value is recorded as “strong, dosedependent effects”.
Regarding `CCOC(=O)C1=C(c2ccccc2)N=C(C)/C(=C(/O)SCCOC)C1CC` (stereo not shown) [Compound 23], the “fold increase in calcium influx” value on TRPV1 [2] (2 µM capsaicin) stood at 5.3 fold. Besides, at TRPV1 [2], the “Hill Slope ± SEM” value was 1.79 ± 0.17 and the “enhancing activity (in words)” value is recorded as “strong, dosedependent effects”. Moreover, at TRPV1 [3] (200 nM capsaicin in the presence of 10 µM 23, 30 sec, 69 cells), the “peak ratio (340/380, normalized to baseline)” value came out at 1.701±0.001.
As to `CCOC(=O)C1=C(C)NC(c2ccccc2)=C(C(=O)OCc2ccccc2)C1C#Cc1ccccc1` (stereo not shown) [MRS1191, 1,4-dihydro-2-methyl-6-phenyl-4-(phenylethynyl)-3,5-pyridinedicarboxylic acid, 3-ethyl 5-(phenylmethyl) ester, reference compound], at TRPV1 [2], the “enhancing activity (in words)” value was “no enhancing effect”.
Regarding `CO/C(O)=C1\C(C)=NC(C)=C([N+](=O)[O-])[C@H]1c1ccccc1C(F)(F)F` [S(–)-Bay K 8644, reference compound], the “enhancing activity (in words)” value at TRPV1 [1] and on TRPV1 [2] was “not enhancers” each time.
For `COc1cc(CNC(=O)CCCC/C=C/C(C)C)ccc1O` [capsaicin, reference compound], the “ED100 for capsaicin activation of TRPV1” value at TRPV1 [2] (pH 7.5) is reported as ~ 2 µM. Further, the “peak ratio (340/380, normalized to baseline)” value at TRPV1 [3] (200 nM capsaicin alone, 30 sec, 98 cells) is 1.518±0.001.
For the compound `COC(=O)C1=C(C)NC(C)=C(C(=O)OCCN(C)Cc2ccccc2)C1c1cccc([N+](=O)[O-])c1` (stereo not shown) [nicardipine, reference compound], the “enhancing activity (in words)” value on TRPV1 [1] and at TRPV1 [2] was “not enhancers” in each case. In addition, in assay [4], the inhibition constant Ki was 3.25 µM.
